Experimental data reported in patent US7173053B2, “N-formyl hydroxylamine derivatives as inhibitors of bacterial polypeptide formylase for treating microbial infections” (British Biotech Pharmaceuticals Limited, priority 2000, dated 2007).
Values after ≈ are worked out from the molar mass of the structure shown.

Columns and labels:
S. aureus ATCC 29213 = experiment: agar plate dilution MIC, S. aureus ATCC 29213; type: cell-based; details: Staphylococcus aureus, ATCC29213, Iso-Sensitest agar pH 7.2, 18 to 24 hr incubation
Experimental: (§1) The susceptibilities of two strains of bacteria to the compounds of Example 1–4 were determined by a standard agar plate dilution method following recommendations in British Society for Antimicrobial Chemotherapy Working Party. 1991, “A guide to sensitivity testing British Society for Antimicrobial Chemotherapy, London, United Kingdom”. Briefly, Iso-Sensitest agar (pH 7.2: Oxoid, United Kingdom) is employed, supplemented with 5% horse blood (Oxoid) and 20 μg of NAD (Sigma) per ml are added to support growth of fastidious bacteria. The inoculum used is approximately 10^4 colony forming units of each isolate contained in a volume of 1 μl. Plates are incubated 18 to 24 hr in air, or for fasidious bacteria an atmosphere enriched with 4–6% carbon dioxide at 35° C. The MIC is determined as the lowest concentration of an antimicrobial tested that inhibited growth of the inoculum, disregarding a single persisting colony or faint haze caused by the inoculation.

S. pneumoniae ATCC 49619 = experiment: agar plate dilution MIC, S. pneumoniae ATCC 49619; type: cell-based; details: Streptococcus pneumoniae, ATCC49619, Iso-Sensitest agar pH 7.2, 18 to 24 hr incubation
Experimental: as §1

Row | Structure (SMILES) | MIC (S. aureus ATCC 29213) | MIC (S. pneumoniae ATCC 49619)
1 | CC(C)(C)[C@H](NC(=O)[C@H](CC1CCCC1)CN(O)C=O)c1nc2cc(F)ccc2[nH]1 [Example 1, 2R-Cyclopentylmethyl-N-[1S-(5-fluoro-1H-benzoimidazol-2-yl)-2,2-dimethyl-propyl]-3-(formyl-hydroxy-amino)-propionamide] | 4 µg/mL (≈ 9.56 µM) | 2 µg/mL (≈ 4.78 µM)
2 | CC(C)(C)[C@H](NC(=O)[C@H](CC1CCCC1)CN(O)C=O)c1nc2cc(Cl)ccc2[nH]1 [Example 2, N-[1-(5-Chloro-1H-benzoimidazol-2-yl)-2,2-dimethyl-propyl]-2-cyclopentylmethyl-3-(formyl-hydroxy-amino)-propionamide] | 8 µg/mL (≈ 18.4 µM) | 2 µg/mL (≈ 4.6 µM)
3 | CC(C)(C)[C@H](NC(=O)[C@H](CC1CCCC1)CN(O)C=O)c1nc2ccccc2[nH]1 [Example 3, N-[1-(1H-Benzoimidazol-2-yl)-2,2-dimethyl-propyl]-2-cyclopentylmethyl-3-(formyl-hydroxy-amino)-propionamide] | 8 µg/mL (≈ 20 µM) | 2 µg/mL (≈ 4.99 µM)
4 | CCCC[C@H](CN(O)C=O)C(=O)N[C@H](c1nc2ccccc2[nH]1)C(C)(C)C [Example 4, 2-[(Formyl-hydroxy-amino)-methyl]-hexanoic acid [1-(1H-benzoimidazol-2-yl)-2,2-dimethyl-propyl]-amide] | 8 µg/mL (≈ 21.4 µM) | 4 µg/mL (≈ 10.7 µM)
